“Also recorded” adds a separate entry of the source.
How the values were obtained:
cyclin A = test: Cyclin A protein expression, immunoblot; type: cell-based, human; conditions: 1 μM ICI182,780
Description: (§1) Cells were cultured in the absence or presence of 1 μM ICI182,780. Equal amounts of total protein (40 μg) were resolved by SDS-PAGE, transferred to Immobilon P membrane and probed with antibodies specific for cyclin A and p21^Cip.
(§2) Cells were scraped in phosphate-buffered saline (PBS) and centrifuged, and the pellet was resuspended in lysis buffer (50 mM Tris-Cl [pH 7.5], 150 mM NaCl, 10 mM MgCl2, 1 mM dithiothreitol, 10 mM NaF, 0.5 mM Na3VO4, 0.5% Nonidet P-40, 10 μg of aprotinin/ml, and 100 μg of phenylmethylsulfonyl fluoride per ml). Protein concentration was measured by the Bio-Rad protein assay. Protein (30 to 50 μg) was resolved by sodium dodecyl sulfate-polyacrylamide gel electrophoresis (SDS-PAGE) and transferred onto Immobilon P membranes (Millipore). The filter was blocked in 2.5% skim milk with 0.1% Tween 20 in PBS for 2 h followed by incubation with the specific antibody. The following antibodies were used: polyclonal rabbit antibodies against phosphorylation-independent p42/44^MAPK, phospho-specific-p42/44^MAPK, and phospho-specific or phosphorylation-independent Raf-1 kinase. Reactive proteins were detected with horseradish peroxidase-conjugated secondary antibodies and visualized with an ebb enhanced chemiluminescence detection kit (Amersham Pharmacia Biotech).

HepG2-ΔRaf-1:ER cells [1] = test: Colony staining (colony formation); type: cell-based, human; conditions: maintained with ICI182,780; results not shown
Description: Cells were seeded at a density of 10,000 cells per 60 mm dish and maintained with or without ICI182,780 for varying periods. Colonies were stained by addition of 0.5 ml methylene blue solution for 30 min followed by washing.

HepG2-ΔRaf-1:ER cells [2] = test: Cell cycle analysis by propidium iodide FACS; type: cell-based, human; conditions: 1 μM ICI182,780, 18 h and 36 h
Description: The percentage of cells in the G1, S and G2 phases of the cell cycle is given for the control and ICI182,780 treated cells.
Cells (5×10^5) were seeded on 100 mm dishes and 2 days later the medium was replaced with medium containing 1 μM ICI182,780. After 18 h and 36 h, attached cells were trypsinized, centrifuged, washed in phosphate-buffered saline, resuspended in 1 ml phosphate-buffered saline, fixed in 1 ml of cold ethanol for overnight at 4° C., centrifuged again, washed once with saline, and resuspended in 0.1% bovine serum albumin containing 50 μg/ml ribonuclease and 50 μg/ml propidium iodide (Sigma), and then analysed in a fluoroscence-activated cell sorter (FACSORT, Becton Dickinson). Data were analysed using the Cellfit program.

p42/44^MAPK = test: p42/44MAPK phosphorylation, immunoblot with phospho-specific antibody in HepG2-ΔRaf-1:ER cells; type: cell-based, human
Description: HepG2 cells were treated with indicated doses of ICI182,780 for 4 hours. Phospho-specific p42/44^MAPK antibody was used to monitor p42/44^MAPK phosphorylation/activation, and phosphorylation-independent p42/44^MAPK antibody was used to measure total p42/44^MAPK protein.
as §2

HepG2-ΔRaf-1:ER cells [3] = test: Growth curves of HepG2-ΔRaf-1:ER cells (cell counting); type: cell-based, human; conditions: 1 μM ICI182,780
Description: (§3) Log-phase cells were seeded at 10^5 cells per 60 mm dish. After 36 h the medium was changed to medium containing either 1 μM ICI182,780 or no ICI182,780. At the indicated times, cells were trypsinized and counted.

HepG2-ΔRaf-1:ER cells [4] = test: DNA synthesis, [3H]thymidine incorporation; type: cell-based, human; conditions: ICI182,780 0 to 1 μM for 18 h or 1 μM over time
Description: Cells in a 24-well dishes were either treated with different ICI182,780 concentrations from 0 to 1 μM for 18 h (top panel) or with 1 μM of ICI182,780 for time periods as indicated in the abscissa of the graph (bottom panel). DNA synthesis was measured by the incorporation of [^3H]thymidine during the final 4 h. Each point represents the mean of three determinations and is representative of at least two independent experiments.
Proliferation was measured with the [^3H]thymidine uptake assay (Amersham), with [^3H]thymidine (1.0 μCi/ml) present in the medium for 4 h prior to harvesting.

HepG2 cells = test: Growth curves of HepG2 cells (cell counting); type: cell-based, human; conditions: 1 μM ICI182,780
Description: as §3

HepG2-ΔRaf-1:ER cells [5] = test: Light microscopic examination of cell morphology; type: cell-based; conditions: 1 μM ICI182,780, 24 h
Description: Cells treated with 1 μM of the ICI182,780 for 24 h were examined by optical microscopy. […] Representative photomicrographs of HepG2-ΔRaf-1:ER cells either untreated or treated with ICI182,780 were taken at low and high cell density regions of the cultured plate by using microscope.
The phenotype seen in ICI182,780-treated cells may resemble the situation of terminal differentiation, in which cells (for example, neurons) show differentiation in the absence of DNA replication.

p21^Cip1 = test: p21Cip protein expression, immunoblot; type: cell-based, human
Description: as §1, §2

[6] = tested on: human LDL receptor promoter; test: LDL receptor promoter-luciferase reporter (construct A) in HepG2-ΔRaf-1:ER cells; type: cell-based; conditions: for transcriptional (activating) effect of ICI182,780 on the human LDL receptor promoter in presence of inhibitor: 1 μM ICI182,780, PD98059 50 μM, staurosporine 1 μM, curcumin 20 μM
Description: HepG2-ΔRaf-1:ER cells were cotransfected with LDL receptor promoter-luciferase reporter (plasmid A) and β-galactosidase-reporter. After 24 hours, cells were grown in a medium containing 0.2% serum for 12 h, followed by addition of 1 μM ICI182,780 for the last 24 h in the absence or presence of indicated inhibitor. […] Sterols (2 μg/ml 25-hydroxycholesterol and 10 μg/ml cholesterol) were added to examine sensitivity to sterols. After the treatment both luciferase and β-galactosidase activities were measured according to the method previously described (24). The results are presented as means ±S.E. and represent at least three individual experiments.
A human low density lipoprotein receptor promoter-luciferase construct A (24) was used to determine the response of the low density lipoprotein receptor promoter to activation of the p42/44^MAPK pathway. HepG2-ΔRaf-1:ER cells were transfected with 0.6 μg of reporter plasmid and 0.25 μg of SV-βGal plasmid by lipofectamine technique, as described previously (Mehta et al., 1996). Cells were washed after 12 h, and after another 12 h the cells were treated with 1 μM ICI182,780 for 36 h, and the controls were treated with ethanol. PBS-washed cells were harvested in 250 mM Tris-Cl, pH 7.5, and lysed in the lysis buffer. The luciferase activities of the cell lysates were measured according to the manufacture's recommendations (Promega). Luciferase assays were carried out in triplicate. In FIG. 6, the data are shown as means of three experiments and the fold induction represents the difference between the means of the samples with ICI182,780 and that of the control. Luciferase activity was normalized for β-galactosidase activity.
To study the role of serine/threonine protein kinases in the activation of the LDL receptor promoter by p42/44^MAPK, HepG2 cells were transiently transfected with construct A. Sixteen hours after transfection, the cells were treated for 1 h with the indicated inhibitor, and then with ICI182,780 in the continued presence of inhibitor.
Because the primary effect of p42/44^MAPK activation is exerted at the transcriptional levels, it was next determined whether ICI182,780 treatment modulated activity of the low density lipoprotein receptor promoter. A low density lipoprotein receptor promoter/luciferase reporter construct A (Mehta et al., 1996), containing promoter sequences from −273 to +35, was transfected into HepG2-ΔRaf-1:ER cells. Both sets of transfected cells were exposed to ICI182,780 for 36 h, after which luciferase activity was determined.

LDL receptor = LDL receptor mRNA expression, Northern blot in HepG2-ΔRaf-1:ER cells; type: cell-based, human
Description: Northern blotting was done under identical conditions to measure RNA levels of LDL receptor, SS, and actin genes.
Total RNA was analyzed by Northern blot for measuring LDL receptor mRNA levels.
LDL receptor and SS mRNA levels were determined by Northern blotting. Results shown are indicative of two separate experiments.
Cells either untreated or pretreated with different concentrations of sterols (1, 2 or 5 μg/ml 25-hydroxycholesterol and 10 μg/ml cholesterol) were induced with ICI182,780 (1 μM) for 4 h. Total RNA was subjected to Northern blotting to determine mRNA levels of LDL receptor and squalene synthase.
Total RNA was isolated by the TRIzol reagent (GIBCO-BRL), according to the manufacturer's protocol. RNA was stored under ethanol. Aliquots containing 20 μg RNA were electrophoresed through a 1%-agarose-formaldehyde gel and transferred to a nylon membrane (BioRad) followed by hybridization. Hybridization probes for LDL receptor, actin, and SS, labeled with ^32P, were prepared using the M13 universal primer. Hybridizations were performed at 45° C., and after final washing at 55° C. for 30 min, filters were exposed to Kodak x-ray film. The relative intensities of specific bands were determined densitometrically within the linear range of film on a model 300A laser densitometer (Molecular Dyanamics) using Image Quant software.

Raf-1 kinase = Raf-1 kinase phosphorylation, immunoblot in HepG2-ΔRaf-1:ER cells; type: cell-based, human; conditions: 30 min pretreatment, then 1 μM ICI182,780
Description: Total cell extracts were subjected to immunoblotting using the phosphorylation-independent and phospho-specific Raf-1 kinase antibodies. The same blot was later probed with the phospho-specific p42/44^MAPK antibody.
as §2

[7] = clone B, ICI182,780 0 to 1 μM, 4 hours
[8] = 30 min pretreatment, then 1 μM ICI182,780

C[C@]12CC[C@@H]3c4ccc(O)cc4C[C@@H](CCCCCCCCC[S+]([O-])CCCC(F)(F)C(F)(F)F)[C@H]3[C@@H]1CC[C@@H]2O (some centres unmarked) [ICI182,780]
cyclin A protein expression (cyclin A): strong down-regulation
ability to form colonies (HepG2-ΔRaf-1:ER cells [1]): reduced their ability to form colonies
cell cycle distribution (HepG2-ΔRaf-1:ER cells [2]): modest increase in the fraction of cells found in the G2/M phase with a concomitant decrease in S phase
time at which p42/44MAPK phosphorylation was clearly detected (p42/44^MAPK; 1 μM ICI182,780, 1 to 16 h): 1 h
time of maximal p42/44MAPK phosphorylation response (p42/44^MAPK; 1 μM ICI182,780, 1 to 16 h): 2 h
increase in p42/44MAPK phosphorylation (p42/44^MAPK; [7]): dependent on ICI182,780 concentration
cell growth of HepG2-ΔRaf-1:ER cells (HepG2-ΔRaf-1:ER cells [3]): arrested the growth
DNA synthesis ([3H]thymidine incorporation) (HepG2-ΔRaf-1:ER cells [4]): inhibition of DNA synthesis
cell growth of HepG2 cells (HepG2 cells): no growth arrest
morphological appearance of treated cells (HepG2-ΔRaf-1:ER cells [5]): larger with neuronal like structures (i.e. filopodia), and less refractile than untreated cells
signs of cell stress or death (HepG2-ΔRaf-1:ER cells [5]): no indication that ICI-treated cells were under stress or dying; also recorded: did not exhibit membrane blebbing and/or increase in the number of rounded and/or detached cells
duration of sustained high p21Cip1 levels (p21^Cip1; 1 μM ICI182,780): at least 24 h
p21Cip1 expression (p21^Cip1; 1 μM ICI182,780, between 30 and 120 min of treatment): strong increase
lowest concentration at which promoter activation was detected ([6]; construct A): 0.5 µM
increase of luciferase expression driven by the LDL receptor promoter ([6]; construct A (-273 to +35), 1 μM ICI182,780 for 36 h, normalized for β-galactosidase): 4 to 6 fold
luciferase activity, promoterless luciferase vector ([6]; transfected cells containing the promoterless luciferase vector, ICI182,780 treatment): virtually no change in luciferase activity
time of maximal induction of LDL receptor expression (LDL receptor; 1 μM ICI182,780, 1 to 16 h): 3 to 4 h
increase in LDL receptor expression (LDL receptor; [7]): dependent on ICI182,780 concentration

COc1cccc(-c2cc(=O)c3ccccc3o2)c1N [PD98059, 2-(2′-amino-3′-methoxyphenyl)-oxanaphthalene-4-one]
p42/44MAPK phosphorylation and activation after PD98059 (p42/44^MAPK; 20 μM PD98059 for 30 min before ΔRaf-1:ER activation, data not shown): inhibited phosphorylation and activation
transcriptional (activating) effect of ICI182,780 on the human LDL receptor promoter in presence of inhibitor [6]: suppressed
p42/44MAPK induced LDL receptor expression after PD98059 (LDL receptor; PD98059 pretreatment 30 min, then 1 μM ICI182,780): significantly inhibited

COc1cc(C=CC(=O)CC(=O)C=Cc2ccc(O)c(OC)c2)ccc1O [curcumin, 1,7-bis [4-hydroxy-3-methoxyphenyl]-1,6-heptadiene-3,5-dione]
ICI182,780-dependent p42/44MAPK activation in presence of curcumin (p42/44^MAPK; curcumin before 1 μM ICI182,780): without affecting
transcriptional (activating) effect of ICI182,780 on the human LDL receptor promoter in presence of inhibitor [6]: completely suppressed
increase in LDL receptor expression caused by ICI182,780 in presence of curcumin (LDL receptor; 60 μM curcumin, endogenous gene): totally suppressed
time of treatment at which the blocking effect was complete (LDL receptor; curcumin, kinetic studies): 4 to 6 h

CN[C@@H]1C[C@H]2O[C@@](C)([C@@H]1OC)n1c3ccccc3c3c4c(c5c6ccccc6n2c5c31)C(=O)NC4 [staurosporine]
ICI182,780-induced p42/44MAPK phosphorylation after staurosporine pretreatment (p42/44^MAPK; [8]): inhibition of phosphorylation
Raf-1 kinase phosphorylation after staurosporine pretreatment (Raf-1 kinase): inhibition of phosphorylation
transcriptional (activating) effect of ICI182,780 on the human LDL receptor promoter in presence of inhibitor [6]: suppressed
ICI182,780-induced LDL receptor expression after staurosporine pretreatment (LDL receptor; [8]): loss of LDL receptor induction

From patent US6756410B2, “Induction of LDL receptor expression by extracellular-signal regulated kinase, ERK-1/2” (priority 2000, dated 2004)
